Assay results reported in patent publication US20240122180A1, “FUNGICIDAL HALOMETHYL KETONES AND HYDRATES AND THEIR MIXTURES” (FMC Corporation, priority 2020, published 2024).

Tests used:
[1] = tested on: Phakopsora pachyrhizi (the causal agent of Asian soybean rust); assay: Test A: preventive spray on soybean seedlings, visual disease rating (100 = 100% control; * 50 ppm, ** 10 ppm, *** 250 ppm); type: in vivo; details: soybean seedlings, 100 = 100% disease control
From the text: (§1) General protocol for preparing test suspensions for Tests A-E: the test compounds were first dissolved in acetone in an amount equal to 3% of the final volume and then suspended at the desired concentration (in ppm) in acetone and purified water (50/50 mix by volume) containing 250 ppm of the surfactant […] (polyhydric alcohol esters). The resulting test suspensions were then used in Tests A-E.
(§2) The test solution was sprayed to the point of run-off on soybean seedlings. The following day the seedlings were inoculated with a spore suspension of Phakopsora pachyrhizi (the causal agent of Asian soybean rust) and incubated in a saturated atmosphere at 22° C. for 24 h, and then moved to a growth chamber at 22° C. for 8 days, after which time visual disease ratings were made.
(§3) Results for Tests A-E are given in Table A. In the Table, a rating of 100 indicates 100% disease control and a rating of 0 indicates no disease control (relative to the controls). An asterisk “*” or a double asterisk “**” or a triple asterisk “***” next to the rating value indicates a 50 ppm, 10 ppm and 250 ppm test suspension was used, respectively. A dash (-) indicates the compound was not tested.

[2] = tested on: Puccinia recondita f. sp. tritici (the causal agent of wheat leaf rust); assay: Test B: preventive spray on wheat seedlings, disease rating (100 = 100% control; * 50 ppm, ** 10 ppm, *** 250 ppm); type: in vivo; details: wheat seedlings, 100 = 100% disease control
From the text: as §1
as §2, with “wheat” for “soybean”, “Puccinia recondita f. sp. tritici” for “Phakopsora pachyrhizi”, “wheat leaf” for “Asian soybean”, “20°” for “22°”, “6” for “8”, “time” for “time visual”
as §3

| SMILES | Test A disease control rating ([1]; 10 ppm test suspension) [%] | Test B disease control rating ([2]; 10 ppm test suspension) [%] | Test A disease control rating ([1]; 50 ppm test suspension) [%] | Test B disease control rating ([2]; 50 ppm test suspension) [%] |
| --- | --- | --- | --- | --- |
| CN(C)S(=O)(=O)c1ccc(OCC(O)(O)C(F)(F)F)cc1 [compound 34] | 0 | 80 | – | – |
| CCOC(=O)c1cnn(C(C)c2ccc(OCC(O)(O)C(F)(F)F)cc2)c1 (stereo not drawn) [compound 35] | 99 | 32 | – | – |
| O=C(NCC1CC1)c1cnn(Cc2ccc(OCC(O)(O)C(F)(F)F)cc2)c1 [compound 36] | 70 | 0 | – | – |
| COC(=O)c1cnn(Cc2ccc(OCC(O)(O)C(F)(F)F)cc2)c1 [compound 37] | 99 | 86 | – | – |
| C=CC(F)(F)OC(=O)c1cnn(Cc2ccc(OCC(O)(O)C(F)(F)F)cc2)c1 [compound 38] | 97 | 89 | – | – |
| CC(C)OC(=O)c1cnn(Cc2ccc(OCC(O)(O)C(F)(F)F)cc2)c1 [compound 39] | 91 | 79 | – | – |
| C=C(C)COC(=O)c1cnn(Cc2ccc(OCC(O)(O)C(F)(F)F)cc2)c1 [compound 40] | 91 | 68 | – | – |
| CN(C)C(=O)C1=NOC(c2ccc(OCC(O)(O)C(F)(F)F)cc2)C1 (stereo not drawn) [compound 41] | 92 | 23 | – | – |
| CCCOC(=O)c1cnn(Cc2ccc(OCC(O)(O)C(F)(F)F)cc2)c1 [compound 42] | 99 | 85 | – | – |
| C=CCOC(=O)c1cnn(Cc2ccc(OCC(O)(O)C(F)(F)F)cc2)c1 [compound 43] | 96 | 60 | – | – |
| O=C(OCC(F)(F)F)c1cnn(Cc2ccc(OCC(O)(O)C(F)(F)F)cc2)c1 [compound 45] | 87 | 85 | – | – |
| O=C(OCC(F)(F)C(F)(F)F)c1cnn(Cc2ccc(OCC(O)(O)C(F)(F)F)cc2)c1 [compound 46] | 64 | 85 | – | – |
| O=C(OCc1ccccc1)c1cnn(Cc2ccc(OCC(O)(O)C(F)(F)F)cc2)c1 [compound 47] | – | – | 100 | 95 |
| CCCCCCOC(=O)c1cnn(Cc2ccc(OCC(O)(O)C(F)(F)F)cc2)c1 [compound 48] | – | – | 100 | 91 |
| O=C(OCc1ccc(Cl)c(Cl)c1)c1cnn(Cc2ccc(OCC(O)(O)C(F)(F)F)cc2)c1 [compound 49] | 0 | 86 | – | – |
| O=C(OCc1ccc(F)c(F)c1)c1cnn(Cc2ccc(OCC(O)(O)C(F)(F)F)cc2)c1 [compound 50] | 54 | 91 | – | – |
| CCOC(=O)c1cnn(Cc2ccc(OCC3(C(F)(F)F)OCCCO3)cc2)c1 [compound 52] | 99 | 0 | – | – |
| CCOC(=O)c1cnn(Cc2ccc(O/C=C(\OC)C(F)(F)F)cc2)c1 [compound 53] | – | – | 100 | 67 |
| CCOC(=O)c1cnn(Cc2ccc(O/C=C(\OCCOC)C(F)(F)F)cc2)c1 [compound 54] | 0 | 0 | – | – |
| C=CCO/C(=C\Oc1ccc(Cn2cc(C(=O)OCC)cn2)cc1)C(F)(F)F [compound 55] | 0 | 0 | – | – |
| C#CCO/C(=C\Oc1ccc(Cn2cc(C(=O)OCC)cn2)cc1)C(F)(F)F [compound 56] | 38 | 0 | – | – |
| CCO/C(=C\Oc1ccc(S(C)(=O)=O)cc1)C(F)(F)F [compound 60] | 0 | 0 | – | – |
| CCO/C(=C\Oc1ccc(S(=O)(=O)N(C)C)cc1)C(F)(F)F [compound 61] | 0 | 0 | – | – |
| CCO/C(=C\Oc1ccc(CS(=O)(=O)CC)cc1)C(F)(F)F [compound 62] | 0 | 0 | – | – |
